This is an account of results in ChEMBL document CHEMBL1136402, “Characterization of HERG potassium channel inhibition using CoMSiA 3D QSAR and homology modeling approaches” (Bioorg Med Chem Lett, 2003).

The target of the assay is Voltage-gated inwardly rectifying potassium channel KCNH2 (Homo sapiens, UniProt Q12809). Kind of assay: Inhibition of K+ channel activity in CHO cells expressing HERG Kv11.1.
Chain of Voltage-gated inwardly rectifying potassium channel KCNH2 (Q12809 whole entry): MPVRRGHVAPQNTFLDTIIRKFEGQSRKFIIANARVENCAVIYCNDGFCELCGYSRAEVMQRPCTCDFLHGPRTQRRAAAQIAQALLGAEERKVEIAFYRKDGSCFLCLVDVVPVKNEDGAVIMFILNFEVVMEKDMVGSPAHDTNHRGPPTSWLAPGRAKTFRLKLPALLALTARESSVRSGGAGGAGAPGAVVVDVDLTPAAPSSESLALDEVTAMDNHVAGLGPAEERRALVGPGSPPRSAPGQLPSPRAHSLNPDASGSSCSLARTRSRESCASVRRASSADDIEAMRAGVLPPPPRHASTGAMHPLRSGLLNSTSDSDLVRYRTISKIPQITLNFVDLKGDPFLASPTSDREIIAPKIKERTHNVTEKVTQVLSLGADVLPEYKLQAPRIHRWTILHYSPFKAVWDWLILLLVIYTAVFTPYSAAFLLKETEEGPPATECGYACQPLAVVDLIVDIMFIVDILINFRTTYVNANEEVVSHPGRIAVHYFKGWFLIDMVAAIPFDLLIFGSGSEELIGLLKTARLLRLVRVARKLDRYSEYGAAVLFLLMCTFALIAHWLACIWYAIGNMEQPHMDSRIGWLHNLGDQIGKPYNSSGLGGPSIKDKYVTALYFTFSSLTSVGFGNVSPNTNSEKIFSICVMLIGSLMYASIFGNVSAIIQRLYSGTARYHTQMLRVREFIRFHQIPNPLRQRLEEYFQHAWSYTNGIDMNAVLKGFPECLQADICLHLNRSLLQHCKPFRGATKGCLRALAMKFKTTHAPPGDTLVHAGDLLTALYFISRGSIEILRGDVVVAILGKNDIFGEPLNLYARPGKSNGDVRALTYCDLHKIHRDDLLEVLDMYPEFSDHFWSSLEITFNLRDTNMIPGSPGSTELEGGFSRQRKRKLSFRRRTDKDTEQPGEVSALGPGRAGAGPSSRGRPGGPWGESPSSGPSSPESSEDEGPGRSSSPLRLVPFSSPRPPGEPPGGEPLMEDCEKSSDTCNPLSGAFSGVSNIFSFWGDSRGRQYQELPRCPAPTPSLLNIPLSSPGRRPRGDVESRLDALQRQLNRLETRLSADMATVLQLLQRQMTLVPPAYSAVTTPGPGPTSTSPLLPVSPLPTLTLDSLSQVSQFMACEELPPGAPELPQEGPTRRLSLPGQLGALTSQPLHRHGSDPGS

In turn, `O=C1NCCN1CCN1CC=C(c2cn(-c3ccc(F)cc3)c3ccc(Cl)cc23)CC1` yielded an IC50 of 10 nM.
`O=C1NCCN1CCN1CCC(c2cn(-c3ccc(F)cc3)c3ccccc23)CC1` came in with a concentration for half-maximal inhibition (IC50) of 7 nM. The IC50 values of the last two compounds are within 1.5-fold of each other.
Then `Fc1ccc(-n2cc(C3CCNCC3)c3cc(Cl)ccc32)cc1`, with 204 nM.
Then `Fc1ccc(-n2cc(C3CCN(CCN4CCN=C4S)CC3)c3ccccc32)cc1`, with 6.2 nM; and `CC(C)(C)c1ccc2c(ccn2-c2ccc(F)cc2)c1`, with greater than 10000 nM; and `CCc1cn(-c2ccc(F)cc2)c2ccc(Cl)cc12`, with 3500 nM.
In the case of `CC(=O)c1cn(-c2ccc(F)cc2)c2ccc(Cl)cc12`, the IC50 is greater than 10000 nM.
Consider `CCCc1cn(-c2ccc(F)cc2)c2ccc(Cl)cc12`, for which it took 26000 nM to reach half-maximal inhibition (IC50). This counts as double-digit micromolar.
For the compound `CC(O)c1cn(-c2ccc(F)cc2)c2ccc(Cl)cc12` (stereo not given), half-maximal inhibition (IC50) was put at 4550 nM. Against the preceding compound, the IC50 is about 5.7-fold lower.
`CC(C)c1cn(-c2ccc(F)cc2)c2ccc(Cl)cc12`: the IC50 was greater than 10000 nM.
Then `CCC(=O)c1cn(-c2ccc(F)cc2)c2ccc(Cl)cc12`, with 1950 nM; and `O=C1NCCN1CCN1CCC(c2cn(C3CCCCC3)c3ccc(Cl)cc23)CC1`, with 137 nM; and `CCC(O)c1cn(-c2ccc(F)cc2)c2ccc(Cl)cc12` (stereo not given), with 2200 nM.
For `CCC(O)(CC)c1cn(-c2ccc(F)cc2)c2ccc(Cl)cc12`, it took 15700 nM to reach half-maximal inhibition (IC50).
`O=C1NCCN1CCN1CCC(C2CN(c3ccc(F)cc3)c3ccccc32)CC1` (stereo not given) showed an IC50 of 23.5 nM.
